# Reference: PubChem BioAssay AID200 (DTP/NCI, 2004)
# Where “and” joins values, the source holds several entries; their conditions need not be identical. Identical values can stand only once. Toxic doses and inconclusive results are not listed. Where a SMILES comes first, the peptide text is derived from it.
# System: B6C3F1 mice, B16 melanoma ip, median survival T/C
# Test: NCI In Vivo Anticancer Drug Screen. Data for tumor model B16 Melanoma (intraperitoneal) in B6C3F1 mice
# Conditions: endpoint: median survival time, schedule: Q01DX009 (ip), higher = longer survival
# Outline: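 Readout: survival or tumor size in treated mice relative to vehicle controls (T/C). Model uses transplantable tumors grown in mice.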
# [1] = dose: 12.5 mg/kg/injection, vehicle: saline
# [2] = dose: 25.0 mg/kg/injection, vehicle: saline
# [3] = dose: 50.0 mg/kg/injection, vehicle: saline
# [4] = dose: 100.0 mg/kg/injection, vehicle: saline
# [5] = dose: 2.5 mg/kg/injection, vehicle: saline with Tween-80
# [6] = dose: 25.0 mg/kg/injection, vehicle: saline with Tween-80
# [7] = dose: 50.0 mg/kg/injection, vehicle: saline with Tween-80
# [8] = dose: 100.0 mg/kg/injection, vehicle: saline with Tween-80
# [9] = dose: 200.0 mg/kg/injection, vehicle: saline with Tween-80
# [10] = dose: 6.25 mg/kg/injection, vehicle: Klucel (hydroxypropylcellulose) (HPC)
compound,measurement,setting,value
CC(=O)OCC1OC(n2ccc(N)nc2=O)C(OC(C)=O)C1OC(C)=O (stereo not given),T/C,[1],106 % of control
same,T/C,[2],104 % of control
same,T/C,[3],109 % of control
same,T/C,[4],108 % of control
same,T/C,"dose: 200.0 mg/kg/injection, vehicle: saline",120 % of control
CCN(CC)CC[n+]1ccc2c(C)c3[nH]c4ccc(O)cc4c3c(C)c2c1,T/C,"dose: 3.12 mg/kg/injection, vehicle: saline",175 % of control
same,T/C,"dose: 6.25 mg/kg/injection, vehicle: saline",151 % of control and 171 % of control
same,T/C,"dose: 6.25 mg/kg/injection, vehicle: suspension in saline",151 % of control
CC/C(C)=C1\OC(=O)C(C)C(O)C(Cc2cccnc2)NC(=O)C(NC(=O)c2ncccc2O)C(C)OC1=O (stereo not given),T/C,"dose: 0.75 mg/kg/injection, vehicle: saline with Tween-80",113 % of control
same,T/C,"dose: 1.5 mg/kg/injection, vehicle: saline with Tween-80",107 % of control
same,T/C,"dose: 3.0 mg/kg/injection, vehicle: saline with Tween-80",123 % of control
same,T/C,"dose: 6.0 mg/kg/injection, vehicle: saline with Tween-80",86 % of control
CCCCCCCC(=O)O[C@H]1[C@H]2[C@@H](CC1(C)C)C(=O)[C@]13O[C@H]1C(=O)[C@]1(CO1)[C@]23C,T/C,"dose: 0.31 mg/kg/injection, vehicle: saline with Tween-80",98 % of control
same,T/C,"dose: 0.62 mg/kg/injection, vehicle: saline with Tween-80",90 % of control
same,T/C,"dose: 1.25 mg/kg/injection, vehicle: saline with Tween-80",86 % of control and 98 % of control
same,T/C,[5],88 % of control
C1CNCCN1,T/C,"dose: 25.0 mg/kg/injection, vehicle: suspension in saline",103 % of control
same,T/C,"dose: 50.0 mg/kg/injection, vehicle: suspension in saline",111 % of control
same,T/C,"dose: 100.0 mg/kg/injection, vehicle: suspension in saline",109 % of control
same,T/C,"dose: 200.0 mg/kg/injection, vehicle: suspension in saline",111 % of control
NCC(=O)NC(Cc1ccc(O)cc1)C(=O)NCC(=O)O (stereo not given) (HELM PEPTIDE1{G.[O=C(C(Cc1ccc(O)cc1)N[*:1])[*:2]].G}$$$$V2.0),T/C,"dose: 50.0 mg/kg/injection, vehicle: Klucel (hydroxypropylcellulose) (HPC)",96 % of control
same,T/C,"dose: 100.0 mg/kg/injection, vehicle: Klucel (hydroxypropylcellulose) (HPC)",98 % of control
same,T/C,"dose: 200.0 mg/kg/injection, vehicle: Klucel (hydroxypropylcellulose) (HPC)",106 % of control
COc1cc2cc3cc4cc(OC)c(OC)cc4c(C)[n+]3cc2cc1OC (tested in a mixture with another compound),T/C,[1],106 % of control
same,T/C,[2],100 % of control
same,T/C,[3],100 % of control
same,T/C,[4],90 % of control
CC(=O)OC1=C(Cl)CCc2ccccc21,T/C,"dose: 37.5 mg/kg/injection, vehicle: saline with Tween-80",115 % of control
same,T/C,"dose: 75.0 mg/kg/injection, vehicle: saline with Tween-80",96 % of control
same,T/C,"dose: 150.0 mg/kg/injection, vehicle: saline with Tween-80",98 % of control
C=COC(=O)C(Cc1ccccc1)NC(=O)OCc1ccccc1 (stereo not given),T/C,[6],102 % of control
same,T/C,[7],98 % of control
same,T/C,[8],96 % of control
same,T/C,[9],102 % of control
same,T/C,"dose: 400.0 mg/kg/injection, vehicle: saline with Tween-80",90 % of control
CN1CCN(c2ccc([N+](=O)[O-])c3no[n+]([O-])c23)CC1,T/C,[5],101 % of control
same,T/C,"dose: 5.0 mg/kg/injection, vehicle: saline with Tween-80",111 % of control
same,T/C,"dose: 20.0 mg/kg/injection, vehicle: saline with Tween-80",95 % of control
O=C(O)/C=C/C(=O)N1Cc2cc3ccccc3nc2C1,T/C,"dose: 12.5 mg/kg/injection, vehicle: saline with Tween-80",110 % of control
same,T/C,[6],99 % of control
same,T/C,[7],98 % of control
same,T/C,[8],94 % of control
same,T/C,[9],95 % of control
O=C(O)C1C2CC3C(C2)C31.[Ag] (stereo not given),T/C,[10],90 % of control
same,T/C,"dose: 12.5 mg/kg/injection, vehicle: Klucel (hydroxypropylcellulose) (HPC)",88 % of control
same,T/C,"dose: 25.0 mg/kg/injection, vehicle: Klucel (hydroxypropylcellulose) (HPC)",100 % of control
CNC(=O)OCc1c(COC(=O)NC)c(-c2ccc(F)cc2)n2c1CCC2,T/C,"dose: 0.78 mg/kg/injection, vehicle: Klucel (hydroxypropylcellulose) (HPC)",114 % of control
same,T/C,"dose: 1.56 mg/kg/injection, vehicle: Klucel (hydroxypropylcellulose) (HPC)",108 % of control
same,T/C,"dose: 3.12 mg/kg/injection, vehicle: Klucel (hydroxypropylcellulose) (HPC)",122 % of control
same,T/C,[10],117 % of control
